Experimental data from US20240270771A1, “Compound containing phosphate group, pharmaceutical composition containing same, preparation method therefor and use thereof” (SHANGHAI RAISING PHARMACEUTICAL CO., LTD., priority 2021, published 2024).

Experiments:
Aβ42 = Aβ42 content in culture supernatant of HEK293APP/sw overexpressing cells (ELISA kit); type: cell-based; conditions: compound 400 μM, 24 hours, adjusted by total protein concentration, blank control 11.08
Description: (§1) BCA Protein Assay Kit was purchased from Beyotime, Aβ40 and Aβ42 detection kits were purchased from Wako, and cell culture related reagents were purchased from Gibco.
(§2) HEK293APP/sw overexpressing cells were cultured in DMEM medium containing 10% FBS, 100 μg/mL G418 (Geneticin) and 1×Penicillin-Streptomycin in 48-well plates. A 4 mM compound stock solution (prepared by dissolving the compound in DMEM culture medium) was filtered through a 0.22 μm sterile filter and stored at −20° C. for subsequent use. At 70% cell density, 40 μL of the compound test solution was added to each well to reach a final concentration of 400 μM, and the plate was incubated for 24 hours.
(§3) The supernatant of the culture medium was collected. The BCA reagent was added to a part of the supernatant, after incubating at room temperature for 30 min, the absorbance value (i.e., OD value) of each well was determined by a microplate reader at 570 nm. The total protein concentration was calculated according to a protein standard curve. Meanwhile, the other part of the supernatant (100 μL) was added to a coated 96-well plate and incubated overnight at 4° C., after the solution was removed and the reagents were washed, HRP (horseradish peroxidase)-labeled antibody was added and incubated at 4° C. for 2 hours. After the reagents were removed and washed, a TMB chromogenic solution was added, the plate was incubated at room temperature for 30 min, and then a stop solution was added to stop the reaction. The absorbance value (i.e., OD value) of each well was measured by a microplate reader at 450 nm. The concentrations of Aβ40 and Aβ42 were calculated according to the standard curves of Aβ40 and Aβ42, respectively. In the end, the concentrations of Aβ40 and Aβ42 were adjusted by the total protein concentration, so as to obtain the final concentration.

Aβ40 = Aβ40 content in culture supernatant of HEK293APP/sw overexpressing cells (ELISA kit); type: cell-based; conditions: compound 400 μM, 24 hours, adjusted by total protein concentration, blank control 127.81
Description: as §1, §2, §3

APP/PSi 2×Tg mice = test: Water maze behavior test; type: in vivo; conditions: 200 mg/kg oral gavage once a day, 8 weeks; for The number of crossing the platform: test day 6, model group 0.9 ± 0.6; for Time in the target quadrant: test day 6, model group 12.8 ± 2.9, in s
Excerpt: Rodents in water have a strong incentive to escape from the water environment, and can escape from the water environment in the fastest and most direct way. The process of learning to escape from the water environment reflects the learning ability of the animals. Spatial positioning according to the surrounding environment and purposefully swimming to a safe place in the water (such as a platform) can reflect the spatial learning and memory ability of the animals.
The test animals were APP/PSi 2×Tg mice (C57BL/6 wild-type mice as the blank control). Mice of 6-8 months old, weighing 20-40 g, were purchased from The Jackson laboratory.
APP/PSi mice are APP/PSi di-transgenic Alzheimer's disease (2×Tg-AD) model mice, and the appearance of deposition of Aβ is earlier than the pathological changes of tau protein for several months, which can more truly simulate the clinical process and pathological changes of Alzheimer's disease.
Preparation of 0.7% CMC-Na: 0.7 g CMC-Na was added with a proper amount of water, heated for dissolution, left for cooling to room temperature, diluted to 100 mL, and stored at 4° C.
Preparation of BTMP: 100 mg of BTMP was added to 10 mL of 0.7% CMC-Na to prepare a 10 mg/mL suspension for use.
Preparation of test compound and comparative compound 1: 100 mg of the compound to be tested was weighted and added to 10 mL of 0.7% CMC-Na to prepare a 10 mg/mL suspension for use.
The laboratory mice were randomly divided into groups (9 or 10 mice per group). Mice in each group were administrated at a dosage of 0.2 mL/10 g body weight by oral gavage once a day for eight weeks.
The mice in the blank control group, model group and test group were orally administrated for 8 consecutive weeks according to the above administration dosage/specification. The water maze training and test were started in the last week of administration. The water maze training and test lasted for six days, with a training period of five days and a testing period of one day. In addition, during the training and testing period of water maze (6 days in total), the indoor conditions such as lighting etc. were kept consistent, the room was kept quiet, and the interference from the environment and personnel was excluded.
2.1. Preparation before the test: a proper amount of water was put into the water maze pool with the water temperature being kept at 22±3° C. The platform was placed in a fixed position (target quadrant) and 1 cm below the water surface, and titanium dioxide was added until the water became white, so that the platform could not be seen clearly.
2.2. Training period (days 1 to 5): on each day, before the first quadrant training, each mouse was placed on the platform for 15 s (to increase the mice's sense of security on the platform), and then the mouse was put into the pool (with its head facing the pool wall) from the quadrant where the platform located, and the swimming time was set as 60 s. If the mouse found the platform within 60 s and stayed for 5 s, it was regarded as the platform being found successfully. If the mouse could not find the platform, then the time was recorded as 60 s. The mouse was guided to the platform and stayed for 20 s, the mouse was then taken out, and the quadrant training for this mouse was ended.
After the first quadrant training, the mouse was trained in the remaining three quadrants sequentially, where it is not necessary to place the mouse on the platform for 15 s before training. The training of each mouse in every two quadrants was conducted at an interval of 10-15 minute. In this way, the training was performed continuously for 5 days.
2.3. Testing period (day 6): 24 hours after the last training, the platform was removed, and the mouse was dropped at the position opposite to the quadrant where the platform previously located (i.e., the position furthest away from the platform). […]

[1] = Pharmacokinetic study, brain distribution test (TM in brain and whole blood); type: in vivo, SD rats; conditions: single gavage to rats, trapezoidal method, calculated after deducting the concentration at time zero
Description: The SD rats used in this test were purchased from Zhejiang Charles rive Laboratory Animal Co., Ltd. Both male and female rats of SPF grade weighting about 250 g were used.
Preparation of the test article: a proper amount of test article was weighed and ground as fine powder in a mortar. A certain amount of the vehicle was added to a proper container, and then the ground test article was added to the container under magnetic stirring. The mixture was stirred until the appearance is uniform.
The male SD rats were divided into three groups (16 rats in each group) (4 animals were sacrificed at 4 time points). […] The animals were sacrificed at 5 min, 1 h, 3 h, and 9 h after the administration. The brain was taken out immediately after sacrifice, rinsed with ice-cold water and rinsed. 50 mg of the brain tissue was weighed, added to 0.45 mL of 100 mM dipotassium hydrogen phosphate buffer (pH=5.0) and homogenized. Blood samples were taken simultaneously and anticoagulated with EDTA. After collection, blood samples were placed on ice. 150 μL of whole blood was taken and 150 μL of 5.2% perchloric acid was added to determine TM. Another 4 animals were gavage administered with normal saline for the determination of endogenous TM concentration. All samples were frozen and stored in a −80° C. refrigerator.
The concentrations of TM and TDP in the samples were determined by HPLC-FLD.
The non-compartment model of the DAS software was used to calculate the pharmacokinetic parameters of TM and TDP in blood of rats after administration. The concentration of TM in the brain tissue after the drug administration in rats was measured, and the mean value and standard deviation were calculated. The area under the drug-time curve AUC was calculated using the trapezoidal method.

[2] = test day 6, model group 45.0 ± 8.8, 200 mg/kg

C/C(=C(\CCOP(=O)(O)O)SC(=O)c1cc2ccccc2o1)N(C=O)Cc1cnc(C)nc1N [Compound 13, (Z)—S-(2-(N-((4-amino-2-methylpyrimidin-5-yl)methyl)formamido)-5-(phosphonooxy)pent-2-en-3-yl) benzofuran-2-carbothioate]
The content of Aβ42 (Aβ42): 7.21 pmol/L | The content of Aβ40 (Aβ40): 43.76 pmol/L

C/C(=C(\CCOP(=O)(O)O)SC(=O)c1ccc(Cl)s1)N(C=O)Cc1cnc(C)nc1N [Compound 7, (Z)—S-(2-(N-((4-amino-2-methylpyrimidin-5-yl)methyl)formamido)-5-(phosphonooxy)pent-2-en-3-yl) 5-chlorothiophene-2-carbothioate]
The content of Aβ42 (Aβ42): 5.03 pmol/L | The content of Aβ40 (Aβ40): 35.93 pmol/L

C/C(=C(\CCOP(=O)(O)O)SC(=O)C(C)C)N(C=O)Cc1cnc(C)nc1N [Comparative compound 1, reference compound]
The number of crossing the platform (APP/PSi 2×Tg mice): 2.1 ± 0.6 | Time in the target quadrant (APP/PSi 2×Tg mice): 18.1 ± 2.8 | Latency period (APP/PSi 2×Tg mice; [2]): 27.0 ± 1.3 s

COc1ccc2oc(C(=O)S/C(CCOP(=O)(O)O)=C(/C)N(C=O)Cc3cnc(C)nc3N)cc2c1 [Compound 8, (Z)—S-(2-(N-((4-amino-2-methylpyrimidin-5-yl)methyl)formamido)-5-(phosphonooxy)pent-2-en-3-yl) 5-methoxybenzofuran-2-carbothioate]
The content of Aβ42 (Aβ42): 2.31 pmol/L | The content of Aβ40 (Aβ40): 60.96 pmol/L

C/C(=C(\CCOP(=O)(O)O)SC(=O)OCCc1ccccc1)N(C=O)Cc1cnc(C)nc1N [Compound 5, (Z)—S-(2-(N-((4-amino-2-methylpyrimidin-5-yl)methyl)formamido)-5-(phosphonooxy)pent-2-en-3-yl) O-phenethyl carbonothioate]
The content of Aβ42 (Aβ42): 4.92 pmol/L | The content of Aβ40 (Aβ40): 48.94 pmol/L | The number of crossing the platform (APP/PSi 2×Tg mice): 2.2 ± 0.7 | Time in the target quadrant (APP/PSi 2×Tg mice): 17.7 ± 2.6 | Latency period (APP/PSi 2×Tg mice; test day 6, model group 45.0 ± 8.8): 25.0 ± 2.2 s

C/C(=C(\CCOP(=O)(O)O)SC(=O)c1ccccc1)N(C=O)Cc1cnc(C)nc1N [BTMP, benfotiamine, reference compound]
The number of crossing the platform (APP/PSi 2×Tg mice): 2.1 ± 0.6 | Time in the target quadrant (APP/PSi 2×Tg mice): 18.0 ± 3.5 | Latency period (APP/PSi 2×Tg mice; [2]): 27.3 ± 1.6 s | AUC of TM in the brain [1]: 739.9 ng·h/g

CCCCC(CC)C(=O)S/C(CCOP(=O)(O)O)=C(/C)N(C=O)Cc1cnc(C)nc1N (stereo not drawn) [Comparative compound 2, reference compound]
AUC of TM in the brain [1]: 555.9 ng·h/g

C/C(=C(\CCOP(=O)(O)O)SC(=O)c1ccoc1)N(C=O)Cc1cnc(C)nc1N [Compound 15, (Z)—S-(2-(N-((4-amino-2-methylpyrimidin-5-yl)methyl)formamido)-5-(phosphonooxy)pent-2-en-3-yl) furan-3-carbothioate]
The content of Aβ42 (Aβ42): 10.52 pmol/L | The content of Aβ40 (Aβ40): 37.88 pmol/L
